In patent publication US9771369B2, “Compounds and methods for kinase modulation, and indications therefor” (Plexxikon Inc., priority 2014, dated 2017):
pIC50: −log10 of the molar value.

Experiments:
c-Kit kinase = c-Kit kinase (Homo sapiens (Human), UniProt P10721); assay: c-Kit biochemical assay (AlphaScreen kinase activity)
Experimental: Assays for biochemical cell-based activity of c-kit kinase are known in the art, for example, as described in U.S. Pat. Nos. 7,498,342 and 7,846,941, the disclosures of which are hereby incorporated by reference as it relates to such assays. The c-kit (or kinase domain thereof) is an active kinase in AlphaScreen. IC50 values are determined with respect to inhibition of c-Kit kinase activity, where inhibition of phosphorylation of a peptide substrate is measured as a function of compound concentration. Compounds to be tested were dissolved in DMSO to a concentration of 30 mM. These were diluted 30 μl into 130 μl of DMSO (4 mM) and 1 μl was added to an assay plate. These were then serially diluted 1:3 (50 μl to 100 μl DMSO) for a total of 8 points. Plates were prepared such that each kinase reaction is 30 μl in 1× kinase buffer (50 mM HEPES, pH 7.2, 5 mM MgCl2, 5 mM MnCl2, 0.01% NP-40, 0.2% BSA), 5% DMSO and 10 μM ATP. Substrate was 100 nM biotin-(E4Y)3 (Open Source Biotech, Inc.). C-kit kinase was at 0.1 ng per sample. After incubation of the kinase reaction for 1 hour at room temperature, 5 μl of donor beads (Streptavidin coated beads (Perkin Elmer Life Science) final concentration 1 μg/ml) in stop buffer (50 mM EDTA in 1× kinase buffer) was added, the sample was mixed and incubated for 30 minutes at room temperature before adding […] of acceptor beads (PY30 coated beads (Perkin Elmer Life Science) final concentration 1 μg/ml) in stop buffer. The samples were incubated for 60 minutes at room temperature and the signal per well was read on AlphaQuest reader. Phosphorylated substrate results in binding of the PY30 antibody and association of the donor and acceptor beads such that signal correlates with kinase activity. The signal vs. compound concentration was used to determine the IC50.
Compounds were also tested using a similar assay with a 10-fold higher ATP concentration. For these samples, compounds to be tested were dissolved in DMSO to a concentration of 30 mM. These were diluted 30 μl into 130 μl of DMSO (4 mM) and 1 μl was added to an assay plate. These were then serially diluted 1:3 (50 μl to 100 μl DMSO) for a total of 8 points. Plates were prepared such that each kinase reaction is 30 μl in 1× kinase buffer (25 mM HEPES, pH 7.5, 2 mM MgCl2, 2 mM MnCl2, 0.01% […], 1 mM DTT, and 0.001% BSA), 5% DMSO and 100 μM ATP. Substrate was 30 nM biotin-(E4Y)10 (Upstate Biotech, Cat#12-440). C-kit kinase was at 1 ng per sample. After incubation of the kinase reaction for 1 hour at room temperature, 5 μl of donor beads (Streptavidin coated beads (Perkin Elmer Life Science) final concentration 10 μg/ml) in stop buffer (25 mM HEPES pH 7.5, 100 mM EDTA, 0.3% BSA) was added, the sample was mixed and incubated for 30 minutes at room temperature before adding 5 μl of acceptor beads (PY30 coated beads (Perkin Elmer Life Science) final concentration 10 μg/ml) in stop buffer. The samples were incubated for 60 minutes at room temperature and the signal per well was read on AlphaQuest or Envision reader (Perkin Elmer Life Science). Phosphorylated substrate results in binding of the PY30 antibody and association of the donor and acceptor beads such that signal correlates with kinase activity. The signal vs. compound concentration was used to determine the IC50.
The c-kit enzyme used in the above assay was either obtained from Cell Signaling Technology (Cat. #7754) or was prepared as follows: A plasmid encoding kit (DNA and encoded protein sequences shown below) was engineered using common polymerase chain reaction (PCR) methods. Complementary DNA cloned from various human tissues were purchased from Invitrogen, and these were used as substrates in the PCR reactions. Specific custom synthetic oligonucleotide primers were designed to initiate the PCR product, and also to provide the appropriate restriction enzyme cleavage sites for ligation with the plasmids. […]

[1] = tested on: BaF3-FL KIT D816V or BaF3-FL KIT V560G/D816V cell line; assay: Cell-based assays of c-Kit mutant kinase activity (cell proliferation, ATPlite); details: at least one of the c-kit cell assays of Example 7
Experimental: The c-Kit mutant D816V inhibitors were assessed using an engineered BaF3-FL KIT D816V or BaF3-FL KIT V560G/D816V cell line. The BaF3-FL KIT D816V cell lines were created by introduction of KIT mutant (D816V) full length constructs that render the cells dependent on the introduced kinase for growth. Inhibitors of c-Kit mutant D816V kinase reduce or eliminate the mediated c-kit mutant D816V kinase activation, resulting in reduced cell proliferation of the BaF3-FL Kit mutant D816V cells. This inhibition is measured by the effect of compound concentration on cell growth to assess IC50 values. BaF3-FL KIT D816V cells were seeded at 1×10^4 cells per well of a 96 well cell culture plate in 50 μl of cell culture medium of RPMI Medium 1× (Invitrogen #11875-093) supplemented with 10% FBS (Invitrogen #10438), 1% Non Essential Amino Acids (Invitrogen #11140), 1% Penicillin Streptomycin (Invitrogen #15140), 1% L-Glutamine (Invitrogen #25030-081). Compounds were dissolved in DMSO at a concentration of 5 mM and were serially diluted 1:3 for a total of eight points and added to the cells to a final maximum concentration of 10 μM in 100 μl cell culture medium (final concentration 0.2% DMSO). Cells were also treated with Dasatinib as a positive control. The cells were incubated at 37° C., 5% CO2 for three days. ATPlite Buffer (Perkin Elmer #6016739) and substrate were equilibrated to room temperature, and enzyme/substrate Recombinant Firefly Luciferase/D-Luciferin was reconstituted. The cell plates were equilibrated to room temperature for 30 minutes, then lysed by addition of 25 μL per well of the ATPlite Reagent. The plate was mixed for 5 minutes on a plate shaker to lyse the cells. The plates were read on a Tecan Safire using Luminescence protocol modified to read 0.1s per well. The luminescence reading assesses the ATP content, which correlates directly with cell number such that the reading as a function of compound concentration is used to determine the IC50 value.
Plasmids P75635 and P75565 were engineered for mammalian cell expression. In both plasmids, full-length human v-kit Hardy-Zuckerman 4 feline sarcoma viral oncogene homolog gene (NCBI accession NM_000222, KIT, residues M1-V976) was subcloned into the pCI-Neo vector (Promega E1841). Plasmid P75635 contains the mutation of residue Aspartic acid 816 to Valine. Plasmid P75565 contains the double mutation of residues Valine 560 to Glycine and Aspartic acid 816 to Valine. The pCI-neo Mammalian Expression Vector carries the human cytomegalovirus (CMV) immediate-early enhancer/promoter region to promote constitutive expression of KIT and contains the neomycin phosphotransferase gene, a selectable marker.
It is understood that the results of these assays may vary as assay conditions are varied. Inhibition levels determined under the conditions described herein represent a relative activity for the compounds tested under the specific conditions employed. The cell based assays are likely to show variability due to the complexity of the system and the sensitivity thereof to any changes in the assay conditions. […] In some instances, the compounds were not tested in all of the assays, or assay results were not valid.

Sequence of c-Kit kinase (P10721 26-976): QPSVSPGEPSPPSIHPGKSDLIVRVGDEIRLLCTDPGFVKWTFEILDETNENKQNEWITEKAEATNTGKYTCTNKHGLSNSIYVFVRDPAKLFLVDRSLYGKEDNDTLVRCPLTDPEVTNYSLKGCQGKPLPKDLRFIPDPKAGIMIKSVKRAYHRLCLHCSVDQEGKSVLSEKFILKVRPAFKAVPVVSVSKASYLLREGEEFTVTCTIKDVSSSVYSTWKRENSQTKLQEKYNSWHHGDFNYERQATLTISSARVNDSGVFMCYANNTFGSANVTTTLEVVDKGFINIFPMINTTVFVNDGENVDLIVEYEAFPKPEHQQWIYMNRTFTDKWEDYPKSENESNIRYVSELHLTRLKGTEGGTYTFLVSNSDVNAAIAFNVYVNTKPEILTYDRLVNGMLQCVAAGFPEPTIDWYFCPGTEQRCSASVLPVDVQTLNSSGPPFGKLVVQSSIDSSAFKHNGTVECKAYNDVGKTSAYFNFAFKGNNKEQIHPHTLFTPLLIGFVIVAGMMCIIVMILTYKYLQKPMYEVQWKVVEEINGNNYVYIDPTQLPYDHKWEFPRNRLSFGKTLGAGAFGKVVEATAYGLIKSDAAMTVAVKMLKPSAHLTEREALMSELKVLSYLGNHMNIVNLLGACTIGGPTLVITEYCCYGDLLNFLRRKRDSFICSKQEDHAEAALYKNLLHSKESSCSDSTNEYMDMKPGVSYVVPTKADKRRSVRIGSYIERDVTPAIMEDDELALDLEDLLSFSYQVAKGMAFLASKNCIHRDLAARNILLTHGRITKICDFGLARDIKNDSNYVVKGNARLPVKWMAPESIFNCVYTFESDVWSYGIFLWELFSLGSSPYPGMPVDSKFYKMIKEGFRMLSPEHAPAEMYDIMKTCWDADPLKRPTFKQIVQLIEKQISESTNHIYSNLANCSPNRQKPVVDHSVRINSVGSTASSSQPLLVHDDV

In the case of `Cc1nc(C2CCN(c3ncnc4[nH]c(-c5cnn(C(F)F)c5)cc34)CC2)[nH]c1-c1ccc(F)cc1` [P-3107, 6-[1-(difluoromethyl)pyrazol-4-yl]-4-[4-[5-(4-fluorophenyl)-4-methyl-1H-imidazol-2-yl]-1-piperidyl]-7H-pyrrolo[2,3-d]pyrimidine], the IC50 (c-Kit kinase) was 0.0001 to 1 µM and the pIC50 [1] was > 5.00.
In the case of `COc1ccc(-c2[nH]c(C3CCN(c4ncnc5[nH]c(-c6cnn(C(F)F)c6)cc45)CC3)nc2C)cc1` [P-3108, 6-[1-(difluoromethyl)pyrazol-4-yl]-4-[4-[5-(4-methoxyphenyl)-4-methyl-1H-imidazol-2-yl]-1-piperidyl]-7H-pyrrolo[2,3-d]pyrimidine], the IC50 (c-Kit kinase) was 0.0001 to 1 µM and the pIC50 [1] was > 5.00.
For `Cc1nc(C2CCN(c3ncnc4[nH]c(-c5ccc(F)cc5)cc34)CC2)[nH]c1-c1ccc2c(c1)OC(F)(F)O2` [P-3109, 4-[4-[5-(2,2-difluoro-1,3-benzodioxol-5-yl)-4-methyl-1H-imidazol-2-yl]-1-piperidyl]-6-(4-fluorophenyl)-7H-pyrrolo[2,3-d]pyrimidine], the IC50 (c-Kit kinase) was 1 to 10 µM and the pIC50 [1] was > 5.00.
In the case of `Cc1nc(C2CCN(c3ncnc4[nH]c(-c5ccc(C#N)cc5)cc34)CC2)[nH]c1-c1ccc2c(c1)OC(F)(F)O2` [P-3110, 4-[4-[4-[5-(2,2-difluoro-1,3-benzodioxol-5-yl)-4-methyl-1H-imidazol-2-yl]-1-piperidyl]-7H-pyrrolo[2,3-d]pyrimidin-6-yl]benzonitrile], the IC50 (c-Kit kinase) was 10 to 300 µM and the pIC50 [1] was > 5.00.
With `COc1cc(-c2cc3c(N4CCC(c5nc(C)c(-c6ccc7c(c6)OC(F)(F)O7)[nH]5)CC4)ncnc3[nH]2)ccn1` [P-3111, 4-[4-[5-(2,2-difluoro-1,3-benzodioxol-5-yl)-4-methyl-1H-imidazol-2-yl]-1-piperidyl]-6-(2-methoxy-4-pyridyl)-7H-pyrrolo[2,3-d]pyrimidine] the IC50 (c-Kit kinase) was 10 to 300 µM and the pIC50 [1] was > 5.00.
With `COc1ccc(-c2[nH]c(C3CCN(c4ncnc5[nH]c(-c6ccc(C#N)cc6)cc45)CC3)nc2C)cn1` [P-3112, 4-[4-[4-[5-(6-methoxy-3-pyridyl)-4-methyl-1H-imidazol-2-yl]-1-piperidyl]-7H-pyrrolo[2,3-d]pyrimidin-6-yl]benzonitrile] the IC50 (c-Kit kinase) was 0.0001 to 1 µM and the pIC50 [1] was > 5.00.
For `Cc1nc(C2CCN(c3ncnc4[nH]c(-c5ccc(C#N)cc5)cc34)CC2)[nH]c1-c1ccc(OC(F)F)cc1` [P-3113, 4-[4-[4-[5-[4-(difluoromethoxy)phenyl]-4-methyl-1H-imidazol-2-yl]-1-piperidyl]-7H-pyrrolo[2,3-d]pyrimidin-6-yl]benzonitrile], the IC50 (c-Kit kinase) was 1 to 10 µM and the pIC50 [1] was > 5.00.
`COc1cccc(-c2[nH]c(C3CCN(c4ncnc5[nH]c(-c6cnn(C(F)F)c6)cc45)CC3)nc2C)c1` [P-3114, 6-[1-(difluoromethyl)pyrazol-4-yl]-4-[4-[5-(3-methoxyphenyl)-4-methyl-1H-imidazol-2-yl]-1-piperidyl]-7H-pyrrolo[2,3-d]pyrimidine] was tested, and the IC50 (c-Kit kinase) was 0.0001 to 1 µM and the pIC50 [1] was > 5.00.
`Cc1nc(C2CCN(c3ncnc4[nH]c(-c5cnn(C(F)F)c5)cc34)CC2)[nH]c1-c1ccc(OC(F)F)cc1` [P-3115, 4-[4-[5-[4-(difluoromethoxy)phenyl]-4-methyl-1H-imidazol-2-yl]-1-piperidyl]-6-[1-(difluoromethyl)pyrazol-4-yl]-7H-pyrrolo[2,3-d]pyrimidine] was tested, and the IC50 (c-Kit kinase) was 0.0001 to 1 µM and the pIC50 [1] was > 5.00.
In the case of `Cc1nc(C2CCN(c3ncnc4[nH]c(-c5cnn(C(F)F)c5)cc34)CC2)[nH]c1-c1ccc(OC(F)(F)F)cc1` [P-3116, 6-[1-(difluoromethyl)pyrazol-4-yl]-4-[4-[4-methyl-5-[4-(trifluoromethoxy)phenyl]-1H-imidazol-2-yl]-1-piperidyl]-7H-pyrrolo[2,3-d]pyrimidine], the IC50 (c-Kit kinase) was 0.0001 to 1 µM and the pIC50 [1] was > 5.00.
For `COc1cc(-c2cc3c(N4CCC(c5nc(C)c(-c6ccc(C)s6)[nH]5)CC4)ncnc3[nH]2)ccn1` [P-3117, 6-(2-methoxy-4-pyridyl)-4-[4-[4-methyl-5-(5-methyl-2-thienyl)-1H-imidazol-2-yl]-1-piperidyl]-7H-pyrrolo[2,3-d]pyrimidine], the IC50 (c-Kit kinase) was 0.0001 to 1 µM and the pIC50 [1] was > 5.00.
For `Cc1ccc(-c2[nH]c(C3CCN(c4ncnc5[nH]c(-c6ccc(F)cc6)cc45)CC3)nc2C)s1` [P-3118, 6-(4-fluorophenyl)-4-[4-[4-methyl-5-(5-methyl-2-thienyl)-1H-imidazol-2-yl]-1-piperidyl]-7H-pyrrolo[2,3-d]pyrimidine], the IC50 (c-Kit kinase) was 0.0001 to 1 µM and the pIC50 [1] was > 5.00.
With `Cc1nc(C2CCN(c3ncnc4[nH]c(-c5ccc(F)cc5)cc34)CC2)[nH]c1-c1ccc(Cl)s1` [P-3119, 4-[4-[5-(5-chloro-2-thienyl)-4-methyl-1H-imidazol-2-yl]-1-piperidyl]-6-(4-fluorophenyl)-7H-pyrrolo[2,3-d]pyrimidine] the IC50 (c-Kit kinase) was 1 to 10 µM and the pIC50 [1] was > 5.00.
In the case of `Cc1cc2c(N3CCC(c4nc(C)c(-c5ccc6c(c5)OCO6)[nH]4)CC3)ncnc2[nH]1` [P-3120, 4-[4-[5-(1,3-benzodioxol-5-yl)-4-methyl-1H-imidazol-2-yl]-1-piperidyl]-6-methyl-7H-pyrrolo[2,3-d]pyrimidine], the IC50 (c-Kit kinase) was 1 to 10 µM and the pIC50 [1] was > 5.00.
`Cc1cc2c(N3CCC(c4nc(C)c(-c5ccc6c(c5)OCCO6)[nH]4)CC3)ncnc2[nH]1` [P-3121, 4-[4-[5-(2,3-dihydro-1,4-benzodioxin-6-yl)-4-methyl-1H-imidazol-2-yl]-1-piperidyl]-6-methyl-7H-pyrrolo[2,3-d]pyrimidine] was tested, and the IC50 (c-Kit kinase) was 1 to 10 µM and the pIC50 [1] was > 5.00.
